Source: PMC3935458 (Journal of medicinal chemistry, 2012)
pIC50: −log10 of the molar value.

Key:
[1] = test system: phosphorylation of C-Nap1; assay: Phosphorylated C-Nap1 in cell assay; conditions: for modulation of C-Nap1 phosphorylation: aphidicolin-synchronized U2OS cells, different concentrations
Nek2 = biological target: T1, Nek2 (Homo sapiens, UniProt P51955); assay type: biochemical
T1 sequence (P51955 1-445): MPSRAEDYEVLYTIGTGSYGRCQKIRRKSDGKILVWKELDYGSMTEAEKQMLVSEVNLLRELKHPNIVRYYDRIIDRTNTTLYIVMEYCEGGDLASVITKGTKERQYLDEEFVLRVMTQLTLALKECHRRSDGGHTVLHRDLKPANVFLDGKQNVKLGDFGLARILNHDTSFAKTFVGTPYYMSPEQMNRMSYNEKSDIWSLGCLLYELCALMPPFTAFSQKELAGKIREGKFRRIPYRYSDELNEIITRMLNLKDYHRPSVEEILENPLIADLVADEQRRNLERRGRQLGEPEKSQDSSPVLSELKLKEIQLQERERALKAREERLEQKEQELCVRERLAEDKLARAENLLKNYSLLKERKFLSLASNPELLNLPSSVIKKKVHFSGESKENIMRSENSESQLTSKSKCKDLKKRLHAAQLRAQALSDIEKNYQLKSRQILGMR

| SMILES | modulation of C-Nap1 phosphorylation [1] | other results |
| --- | --- | --- |
| C[C@@H](Oc1cc(-c2cc(-c3cc(CN(C)C)cs3)cnc2N)ccc1C(N)=O)c1ccccc1C(F)(F)F [(R)-17j] | – | pIC50 ([1]; Homo sapiens, U2OS, 3 h, read-out: IC50 for C-Nap1 phosphorylation inhibition): 5.57 |
| CC(Oc1cc(-c2cc(-c3ccc(CN4CCOCC4)s3)cnc2N)ccc1C(N)=O)c1ccccc1C(F)(F)F (stereo not shown) [17g] | – | increase of Nek2 IC50 compared with compound 17c (Nek2): more than 7 fold |
| C[C@@H](/C=C\C(F)(F)F)Oc1cc(-c2cc(-c3cc(CN(C)C)cs3)cnc2N)ccc1C(N)=O [(S)-21, (S)-(Z)-4-(2-Amino-5-(4-((dimethylamino)methyl)thiophen-2-yl)pyridin-3-yl)-2-((5,5,5-trifluoropent-3-en-2-yl)oxy)benzamide] | significantly less suppression of C-Nap1 phosphorylation | – |
| CC(Oc1cc(-n2cnc3cc(OC4CCN(C)CC4)ccc32)ccc1C(N)=O)c1ccccc1C(F)(F)F (racemic) [rac-3, reference compound] | did not show any significant modulation of C-Nap1 phosphorylation | – |
